Measurements: patent US20040110821A1, “GAL3 receptor antagonists for the treatment of affective disorders” (priority 2002, published 2004)
Read-outs that look alike come from different tables or passages of the source.

Tests used:
[1] = molecular target: T1, human GAL3 receptor (Homo sapiens, UniProt O60755); assay: Radioligand binding at cloned human GAL3 receptor; settings: cloned human GAL3 receptor
T1 construct: expressed in transfected cells
T1 sequence (O60755 1-368): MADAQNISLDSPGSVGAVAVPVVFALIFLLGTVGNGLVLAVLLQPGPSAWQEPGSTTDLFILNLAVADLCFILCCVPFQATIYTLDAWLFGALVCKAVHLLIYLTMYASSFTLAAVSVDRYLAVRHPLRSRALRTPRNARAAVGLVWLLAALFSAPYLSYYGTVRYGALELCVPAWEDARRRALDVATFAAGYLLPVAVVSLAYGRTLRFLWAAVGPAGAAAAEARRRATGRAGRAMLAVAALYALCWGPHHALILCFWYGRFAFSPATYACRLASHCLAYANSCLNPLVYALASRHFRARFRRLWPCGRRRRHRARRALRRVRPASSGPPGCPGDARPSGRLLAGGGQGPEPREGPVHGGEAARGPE
Experimental: (§1) The present invention provides for a method of determining the binding affinity of a GAL3 antagonist, wherein the GAL3 antagonist is dissolved in a “suitable solvent”. A “suitable solvent” means one which permits the measurement of binding affinity of the GAL3 antagonist to the human GAL3 receptor at concentrations less than 1 μM, preferably less than 100 nM. Examples of solvents include, but are not limited to, DMSO, ethanol, N,N-dimethylacetamide, or water. For indolones, the preferred solvent is 3% DMSO (final concentration in the assay). For pyrimidines, the preferred solvent is 1% ethanol/0.09% polypuronic acid F-127 (final concentration in the assay). For any other type of compounds, the preferred solvent is the solvent which permits the measurement of binding affinity of a GAL3 antagonist at the lowest concentration. Once a suitable solvent is ascertained for the binding assay of the human GAL3 receptor, the same solvent is used in assays to determine the binding affinity for instance, at the GAL1 receptor.
(§2) The binding properties of the pyrimidines of the present invention were evaluated at the cloned human galanin receptors, GAL1, GAL2, and GAL3, using protocols described herein.
(§3) The binding properties of the indolones of the present invention were evaluated at the cloned human galanin receptors, GAL1, GAL2, and GAL3, using protocols described herein.
(§4) LM(tk-) cells were stably transfected with the human GAL1 or GAL3 receptor. CHO cells were stably transfected with the human GAL2 receptor.
(§5) cDNAs for the human and rat GAL1, and human and rat GAL3 receptors were transfected with a G-418 resistant gene into the mouse fibroblast LM(tk-) cell line by a calcium phosphate transfection method (Cullen, 1967). Stably transfected cells were selected with G-418. Human and rat GAL2 receptors were similarly transfected into CHO cells.
(§6) Membranes were harvested from stably transfected LM(tk-) cells. Adherent cells were washed twice in ice-cold phosphate buffered saline (138 mM NaCl, 8.1 mM Na2HPO4, 2.5 mM KCl, 1.2 mM KH2PO4, 0.9 mM CaCl2, 0.5 mM MgCl2, pH 7.4) and lysed by sonication in ice-cold sonication buffer (20 mM Tris-HCl, 5 mM EDTA, pH 7.7). Large particles and debris were cleared by low speed centrifugation (200×g, 5 min, 4° C.). Membranes were collected from the supernatant fraction by centrifugation (32,000×g, 18 min, 4° C.), washed with ice-cold hypotonic buffer, and collected again by centrifugation (32,000×g, 18 min, 4° C.). The final membrane pellet was resuspended by sonication into a small volume of ice-cold binding buffer (−1 ml for every 5 plates: 10 mM NaCl, 20 mM HEPES, 0.22 mM KH2PO4, 1.26 mM CaCl2, 0.81 mM MgSO4, pH 7.4). Protein concentration was measured by the Bradford method (Bradford, 1976) using Bio-Rad Reagent, with bovine serum albumin as a standard. Membranes were held on ice for up to one hour and used fresh, or flash frozen and stored in liquid nitrogen. Membranes were prepared similarly from CHO cells.
(§7) Galanin Receptors: Binding assays were performed according to the following published methods: human GAL3 (PCT International Publication No. WO 98/15570), human GAL1 (PCT International Publication No. WO 95/2260) human GAL2 (PCT International Publication No. WO 97/26853).
(§8) Binding data were analyzed using nonlinear regression and statistical techniques available in the GraphPAD Prism package (San Diego, Calif.). Enzymatic assay data were derived from a standard curve of reference compound data.

[2] = molecular target: T2, human GAL1 receptor (Homo sapiens, UniProt P47211); assay: Radioligand binding at cloned human GAL1 receptor; settings: pyrimidines, Tables 1-3, read-out: Ki (nM) GalR1
T2 construct: expressed in transfected cells
T2 sequence (P47211 1-349): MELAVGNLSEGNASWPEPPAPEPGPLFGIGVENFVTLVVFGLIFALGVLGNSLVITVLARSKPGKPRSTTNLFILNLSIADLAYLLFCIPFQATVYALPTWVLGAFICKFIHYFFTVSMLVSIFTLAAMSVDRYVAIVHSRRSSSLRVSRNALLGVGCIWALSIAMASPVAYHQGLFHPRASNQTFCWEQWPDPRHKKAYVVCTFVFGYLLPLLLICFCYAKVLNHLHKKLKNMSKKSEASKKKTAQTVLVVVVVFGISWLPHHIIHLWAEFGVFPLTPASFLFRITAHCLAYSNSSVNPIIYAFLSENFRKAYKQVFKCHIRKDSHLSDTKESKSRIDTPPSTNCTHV
Experimental: as §1, §2, §3, §4, §5, §6, §7, §8

[3] = molecular target: T3, human GAL2 receptor (Homo sapiens, UniProt O43603); assay: Radioligand binding at cloned human GAL2 receptor; settings: pyrimidines, Tables 1-3, read-out: Ki (nM) GalR2
T3 construct: expressed in transfected cells
T3 sequence (O43603 1-387): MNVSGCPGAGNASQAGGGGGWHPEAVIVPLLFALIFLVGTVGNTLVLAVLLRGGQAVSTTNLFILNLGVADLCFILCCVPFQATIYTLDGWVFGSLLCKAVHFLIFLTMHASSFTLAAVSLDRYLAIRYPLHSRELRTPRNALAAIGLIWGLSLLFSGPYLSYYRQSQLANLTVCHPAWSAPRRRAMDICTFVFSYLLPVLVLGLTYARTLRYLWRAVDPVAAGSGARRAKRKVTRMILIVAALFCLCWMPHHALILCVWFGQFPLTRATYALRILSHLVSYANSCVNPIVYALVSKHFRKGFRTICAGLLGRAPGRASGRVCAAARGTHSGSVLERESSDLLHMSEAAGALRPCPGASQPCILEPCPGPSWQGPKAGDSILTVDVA
Experimental: as §1, §2, §3, §4, §5, §6, §7, §8

[4] = pyrimidines, Tables 1-3, read-out: Ki (nM) GalR3
[5] = pyrimidines, Table 3a, read-out: Ki (nM) Gal3
[6] = indolones, Table 4a, read-out: Ki (nM) Gal3

Work on `CN(CCc1c[nH]c2ccccc12)c1nc(NCCc2ccccc2)cc(N2CCCCC2)n1` [Example 12] yielded a Ki [1, 4] of 322 nM, a Ki [2] greater than 5000 nM and a Ki [3] of 2000 nM.

In the case of “N^2-[2-(1H-INDOL-3-YL)ETHYL]-N^2,N^4,N^4-TRIMETHYL-(2-NAPHTHYL)-6-(1-PIPERIDINYL)-2,4,6-PYRIMIDINETRIAMINE [Example 79]”, the Ki [1, 4] is reported as 190 nM, the Ki [2] is reported as 3800 nM and the Ki [3] is reported as 1660 nM.

For `CN(C)c1cc(Nc2ccc(Cl)cc2C(F)(F)F)nc(N2CCN(Cc3ccccc3)CC2)n1` [Example 239], the Ki [1, 5] was 59 nM.

`CN(C)c1cc(N[C@@H]2C[C@H]3CC[C@]2(C)C3(C)C)nc(N2CCN(Cc3ccccc3)CC2)n1` [Example 153] was tested, and the Ki [1, 5] was 55 nM.

With `CN(C)c1cc(Nc2ccccc2Cl)nc(N2CCN(c3ccccn3)CC2)n1` [Example 195] the Ki [1, 5] was 388 nM.

`C[C@H]1CC2CC([C@@H]1Nc1cc(N(C)C)nc(Nc3ccccc3)n1)C2(C)C` (stereo partly shown) [Example 71] gave a Ki [1, 4] of 72 nM and a Ki [3] of 944 nM.

With `COCCN(CCOC)c1nc(Nc2ccc(C)cc2)cc(N2CCCCC2)n1` [Example 45] the Ki [2] was greater than 5000 nM and the Ki [3] was greater than 5000 nM.

Work on `Cc1ccc(Nc2cc(N3CCCCC3)nc(N3CCN(Cc4ccccc4)CC3)n2)cc1` [Example 23] yielded a Ki [2] greater than 5000 nM and a Ki [3] greater than 5000 nM.

Work on `CN(C)c1cc(Nc2ccc(Oc3ccccc3)cc2)nc(Nc2ccccc2)n1` [Example 64] yielded a Ki [2] greater than 5000 nM and a Ki [3] greater than 5000 nM.

`Cc1ccc(Nc2cc(N3CCCCC3)nc(N3CCN(c4cccc(C(F)(F)F)n4)CC3)n2)cc1` [Example 33] gave a Ki [2] greater than 5000 nM and a Ki [3] greater than 5000 nM.

Compound `O=C1/C(=N\c2ccc(Oc3ccccc3)cc2)c2ccccc2N1c1ccsc1` [Example 268, 3Z)-3-[(4-PHENOXYPHENYL)IMINO]-1-(3-THIENYL)-1,3-DIHYDRO-2H-INDOL-2-ONE] has a Ki [1, 6] of 57 nM.

Work on `CN1C(=O)c2ccc(/N=C3\C(=O)N(c4ccccc4)c4ccccc43)cc2C1=O` [Example 110, 2-METHYL-5-[(2-OXO-1-PHENYL-1,2-DIHYDRO-3H-INDOL-3-YLIDENE)AMINO]-2H—ISOINDOLE-1,3(2H)-DIONE] yielded a Ki [1, 6] of 138 nM.

Compound `Cc1ccc(/N=C2\C(=O)N(c3ccccc3)c3ccccc32)c(Cl)c1` [Example 286] has a Ki [1, 6] of 38 nM.

Work on `Cc1cccc(Nc2cc(N(C)C)nc(Nc3ccccc3)n2)c1` [Example 52] yielded a Ki [2] greater than 5000 nM and a Ki [3] greater than 5000 nM.

Compound `Cc1ccc(Nc2cc(N(C)C)nc(N3CCN(c4cccc(C)c4)CC3)n2)cc1` [Example 86] has a Ki [2] greater than 5000 nM and a Ki [3] greater than 5000 nM.

`Cc1ccc(Nc2cc(N(C)C)nc(Nc3ccc(C)cc3)n2)cc1` [Example 56] showed a Ki [2] greater than 5000 nM and a Ki [3] greater than 5000 nM.

In the case of `Cc1ccc(Nc2cc(N3CCCCC3)nc(Nc3ccc(C)cc3)n2)cc1` [Example 4], the Ki [2] is reported as greater than 5000 nM and the Ki [3] is reported as greater than 5000 nM.

With `O=C1/C(=N\c2ccc(-c3cccc(C(F)(F)F)c3)cc2)c2ccccc2N1c1ccccc1` [Example 305, (3Z)-1-PHENYL-3-{[3′-(TRIFLUOROMETHYL)[1,1′-BIPHENYL]-4-YL]IMINO}-1,3-DIHYDRO-2H-INDOL-2-ONE] the Ki [1, 6] was 638 nM.

`CN(C)c1cc(NC23CC4CC(CC2C4)C3)nc(N2CCN(Cc3ccccc3)CC2)n1` [Example 137] showed a Ki [1, 5] of 124 nM.

For `CN(C)c1cc(Nc2ccc(Br)cc2)nc(Nc2ccccc2)n1` [Example 59], the Ki [2] was greater than 5000 nM and the Ki [3] was greater than 5000 nM.

`CN(C)c1cc(NC2CCCCC2)nc(Nc2ccccc2)n1` [Example 66] gave a Ki [2] greater than 5000 nM and a Ki [3] greater than 5000 nM.

Work on `Cc1ccc(Nc2cc(N(C)C)nc(N3CCN(S(=O)(=O)c4ccc(C)cc4)CC3)n2)cc1` [Example 84] yielded a Ki [2] greater than 5000 nM and a Ki [3] greater than 5000 nM.

`Cc1ccc(Nc2nc(Nc3cccc(C)c3)cc(N(C)C)n2)cc1` [Example 53] was tested, and the Ki [2] was greater than 5000 nM and the Ki [3] was greater than 5000 nM.
